Experimental data published in PubChem BioAssay (NCI).
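How tested: cells in 96-well plates exposed to compound for 48 hours at five concentrations. TGI denotes the concentration required for complete inhibition of growth.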

Tests used:
Experiment in all cases: DTP human tumour cell line panel, 48 h
HOP-62 NSCLC = tested on: HOP-62 NSCLC
SK-MEL-5 melanoma = tested on: SK-MEL-5 melanoma
HCT-15 colon = tested on: HCT-15 colon
PC-3 prostate = tested on: PC-3 prostate
U251 CNS = tested on: U251 CNS
SK-MEL-28 melanoma = tested on: SK-MEL-28 melanoma
T-47D breast = tested on: T-47D breast
NCI-H226 lung = tested on: NCI-H226 lung
SW-620 colon = tested on: SW-620 colon
RPMI-8226 leukemia = tested on: RPMI-8226 leukemia
K-562 leukemia = tested on: K-562 leukemia
OVCAR-8 ovarian = tested on: OVCAR-8 ovarian
HS 578T breast = tested on: HS 578T breast
OVCAR-4 ovarian = tested on: OVCAR-4 ovarian
SF-539 CNS = tested on: SF-539 CNS
SK-MEL-2 melanoma = tested on: SK-MEL-2 melanoma
SNB-19 CNS = tested on: SNB-19 CNS
SK-OV-3 ovarian = tested on: SK-OV-3 ovarian
EKVX NSCLC = tested on: EKVX NSCLC
DU-145 prostate = tested on: DU-145 prostate
SF-268 CNS = tested on: SF-268 CNS
UACC-62 melanoma = tested on: UACC-62 melanoma
NCI-H460 lung = tested on: NCI-H460 lung
UACC-257 melanoma = tested on: UACC-257 melanoma
LOX IMVI melanoma = tested on: LOX IMVI melanoma
ACHN renal = tested on: ACHN renal
CAKI-1 renal = tested on: CAKI-1 renal
HT29 colon = tested on: HT29 colon
BT-549 breast = tested on: BT-549 breast
CCRF-CEM leukemia = tested on: CCRF-CEM leukemia
HOP-92 NSCLC = tested on: HOP-92 NSCLC
MDA-MB-435 = tested on: MDA-MB-435
NCI-H23 lung = tested on: NCI-H23 lung
SNB-75 CNS = tested on: SNB-75 CNS
RXF 393 renal = tested on: RXF 393 renal
MDA-MB-231 breast = tested on: MDA-MB-231 breast
MCF7 breast = tested on: MCF7 breast
UO-31 renal = tested on: UO-31 renal
SF-295 CNS = tested on: SF-295 CNS
A498 renal = tested on: A498 renal
TK-10 renal = tested on: TK-10 renal
NCI/ADR-RES ovarian = tested on: NCI/ADR-RES ovarian
HCT-116 colon = tested on: HCT-116 colon
HCC-2998 colon = tested on: HCC-2998 colon
IGROV1 ovarian = tested on: IGROV1 ovarian
MOLT-4 leukemia = tested on: MOLT-4 leukemia
KM12 colon = tested on: KM12 colon
HL-60(TB) leukemia = tested on: HL-60(TB) leukemia
COLO 205 colon = tested on: COLO 205 colon
M14 melanoma = tested on: M14 melanoma
SR leukemia = tested on: SR leukemia
786-0 renal = tested on: 786-0 renal

With `CC1=NN(c2nc(N)nc(/C(C#N)=C/c3ccncc3)n2)C(C)(C)C1` the TGI (HOP-62 NSCLC) was over 100 µM, the TGI (SK-MEL-5 melanoma) was over 100 µM and the TGI (HCT-15 colon) was over 100 µM. For the same molecule, the TGI (PC-3 prostate) was over 100 µM, the TGI (U251 CNS) was over 100 µM and the TGI (SK-MEL-28 melanoma) was over 100 µM. It also gave a TGI (T-47D breast) of over 100 µM, a TGI (NCI-H226 lung) of over 100 µM and a TGI (SW-620 colon) of over 100 µM. It also gave a TGI (RPMI-8226 leukemia) of over 100 µM, a TGI (K-562 leukemia) of 37.9 µM and a TGI (OVCAR-8 ovarian) of over 100 µM. It also gave a TGI (HS 578T breast) of over 100 µM, a TGI (OVCAR-4 ovarian) of over 100 µM and a TGI (SF-539 CNS) of over 100 µM. The TGI (SK-MEL-2 melanoma) was over 100 µM, the TGI (SNB-19 CNS) was over 100 µM and the TGI (SK-OV-3 ovarian) was over 100 µM. It also gave a TGI (EKVX NSCLC) of over 100 µM, a TGI (DU-145 prostate) of over 100 µM and a TGI (SF-268 CNS) of over 100 µM. The TGI (UACC-62 melanoma) was over 100 µM, the TGI (NCI-H460 lung) was over 100 µM and the TGI (UACC-257 melanoma) was over 100 µM. The TGI (LOX IMVI melanoma) was over 100 µM, the TGI (ACHN renal) was over 100 µM and the TGI (CAKI-1 renal) was over 100 µM. It also gave a TGI (HT29 colon) of over 100 µM, a TGI (BT-549 breast) of over 100 µM and a TGI (CCRF-CEM leukemia) of over 100 µM. For the same molecule, the TGI (HOP-92 NSCLC) was over 100 µM, the TGI (MDA-MB-435) was over 100 µM and the TGI (NCI-H23 lung) was over 100 µM. It also gave a TGI (SNB-75 CNS) of over 100 µM, a TGI (RXF 393 renal) of over 100 µM and a TGI (MDA-MB-231 breast) of over 100 µM. It also gave a TGI (MCF7 breast) of over 100 µM, a TGI (UO-31 renal) of over 100 µM and a TGI (SF-295 CNS) of over 100 µM. The TGI (A498 renal) was over 100 µM, the TGI (TK-10 renal) was over 100 µM and the TGI (NCI/ADR-RES ovarian) was over 100 µM. It also gave a TGI (HCT-116 colon) of over 100 µM, a TGI (HCC-2998 colon) of over 100 µM and a TGI (IGROV1 ovarian) of over 100 µM. For the same molecule, the TGI (MOLT-4 leukemia) was over 100 µM, the TGI (KM12 colon) was over 100 µM and the TGI (HL-60(TB) leukemia) was over 100 µM. For the same molecule, the TGI (COLO 205 colon) was over 100 µM, the TGI (M14 melanoma) was over 100 µM and the TGI (SR leukemia) was over 100 µM. The TGI (786-0 renal) was over 100 µM.
